Experiments:
Assay type in all cases: in vivo
[1] = test system: sicklepod (Cassia obtusifolia, CASOB); assay: Pre-emerge test, greenhouse herbicide activity screening; details: phytotoxicity rating 0-100, 14 days after application
Method in brief: (§1)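 Compounds in acetone were track-sprayed at 15–1000 g ai/ha: pre-emergence onto soil sown the previous day, then top-watered to incorporate and later bottom-watered; post-emergence onto 2–3 leaf plants with 0.25% v/v surfactant, bottom-watered only. Ratings on a 0–100 phytotoxicity scale were taken at day 14.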

[2] = test system: large crabgrass (Digitaria sanguinalis, DIGSA); assay: as above; details: phytotoxicity rating 0-100, 14 days after application
Method in brief: as §1

[3] = test system: lambsquarters (Chenopodium album, CHEAL); assay: as above; details: phytotoxicity rating 0-100, 14 days after application
Method in brief: as §1

[4] = test system: velvetleaf (Abutilon theophrasti, ABUTH); assay: as above; details: phytotoxicity rating 0-100, 14 days after application
Method in brief: as §1

[5] = test system: common ragweed (Ambrosia artemisizfolia L., AMBEL); assay: as above; details: phytotoxicity rating 0-100, 14 days after application
Method in brief: as §1

[6] = test system: barnyardgrass (Echinochloa crus-galli, ECHCG); assay: as above; details: phytotoxicity rating 0-100, 14 days after application
Method in brief: as §1

[7] = test system: green foxtail (Setaria viridis, SETVI); assay: as above; details: phytotoxicity rating 0-100, 14 days after application
Method in brief: as §1

[8] = test system: johnsongrass (Sorghum halepense, SORHA); assay: as above; details: phytotoxicity rating 0-100, 14 days after application
Method in brief: as §1

[9] = test system: ivyleaf morningglory (Ipomoea hederacea, IPOHE); assay: as above; details: phytotoxicity rating 0-100, 14 days after application
Method in brief: as §1

[10] = test system: upland rice (Oryza sp., var. Tebonnet, RICE); assay: Post-emerge test, crop safety; details: post-emerge, 14 days after application, rating scale 0-100
Method in brief: (§2)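 Rating: 0–100 visual injury, 14 DAA. Application: acetone, 187 l/ha, 15–1000 g ai/ha, flat-fan track sprayer with nozzle 40–45 cm above soil or canopy. Post-emerge runs used 0.25% v/v surfactant on 2–3 leaf plants.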

[11] = test system: field corn (Zea mays L., var. Dekalb 535, CORN); assay: Post-emerge test, crop safety; details: post-emerge, 14 days after application, rating scale 0-100
Method in brief: as §2

[12] = test system: sicklepod (Cassia obtusifolia, CASOB); assay: Post-emerge test, greenhouse herbicide activity screening; details: post-emerge, 63 g ai/ha, 14 days after application, rating scale 0-100
Method in brief: (§3)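 Compounds in acetone were track-sprayed at 15-1000 g ai/ha (187 l/ha) on sandy loam pots: pre-emerge one day after seeding, post-emerge at 2-3 leaf stage with 0.25% v/v non-ionic surfactant. Phytotoxicity was rated 14 days later on a 0 (no damage) to 100 (complete death) scale.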

[13] = test system: large crabgrass (Digitaria sanguinalis, DIGSA); assay: as above; details: post-emerge, 14 days after application, rating scale 0-100
Method in brief: as §3

[14] = test system: lambsquarters (Chenopodium album, CHEAL); assay: as above; details: post-emerge, 14 days after application, rating scale 0-100
Method in brief: as §3

[15] = test system: velvetleaf (Abutilon theophrasti, ABUTH); assay: as above; details: post-emerge, 14 days after application, rating scale 0-100
Method in brief: as §3

[16] = test system: redroot pigweed (Amaranthus retroflexus, AMARE); assay: as above; details: post-emerge, 14 days after application
Method in brief: as §3

[17] = test system: common ragweed (Ambrosia artemisizfolia L., AMBEL); assay: as above; details: post-emerge, 14 days after application, rating scale 0-100
Method in brief: as §3

[18] = test system: barnyardgrass (Echinochloa crus-galli, ECHCG); assay: as above; details: post-emerge, 14 days after application, rating scale 0-100
Method in brief: as §3

[19] = test system: green foxtail (Setaria viridis, SETVI); assay: as above; details: post-emerge, 14 days after application, rating scale 0-100
Method in brief: as §3

[20] = test system: johnsongrass (Sorghum halepense, SORHA); assay: as above; details: post-emerge, 14 days after application, rating scale 0-100
Method in brief: as §3

[21] = test system: ivyleaf morningglory (Ipomoea hederacea, IPOHE); assay: as above; details: post-emerge, 14 days after application, rating scale 0-100
Method in brief: as §3

[22] = test system: upland rice (Oryza sp., var. Tebonnet, RICE); assay: Pre-emerge test, crop safety; details: crop damage rating 0-100, 14 days after application
Method in brief: (§4)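 Visual ratings on a 0-100 scale (0 no damage, 100 all plants dead) were taken at 14 days after treatment. Rates of 15-1000 g ai/ha in acetone, 187 l/ha, were sprayed onto soil one day after planting (pre-emerge) or onto 2-3 leaf plants with 0.25% v/v surfactant (post-emerge).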

[23] = test system: field corn (Zea mays L., var. Dekalb 535, CORN); assay: Pre-emerge test, crop safety; details: crop damage rating 0-100, 14 days after application
Method in brief: as §4

[24] = test system: redroot pigweed (Amaranthus retroflexus, AMARE); assay: Pre-emerge test, greenhouse herbicide activity screening; details: phytotoxicity rating 0-100, 14 days after application
Method in brief: as §3

Cn1c(C(F)(F)F)cc(=O)n(-c2ccc(Cl)cc2NC(=O)C2CC2)c1=O [2-204]
Pre-emerge Herbicidal Activity CASOB ([1]; 63 g ai/ha): 60 | Pre-emerge Herbicidal Activity CASOB ([1]; 250 g ai/ha): 75 | Pre-emerge Herbicidal Activity DIGSA ([2]; 63 g ai/ha): 35 | Pre-emerge Herbicidal Activity DIGSA ([2]; 250 g ai/ha): 100 | Pre-emerge Herbicidal Activity CHEAL ([3]; 63 g ai/ha): 70 | Pre-emerge Herbicidal Activity CHEAL ([3]; 250 g ai/ha): 100 | Pre-emerge Herbicidal Activity ABUTH ([4]; 63 g ai/ha): 99 | Pre-emerge Herbicidal Activity ABUTH ([4]; 250 g ai/ha): 100 | Pre-emerge Herbicidal Activity AMBEL ([5]; 63 g ai/ha): 50 | Pre-emerge Herbicidal Activity AMBEL ([5]; 250 g ai/ha): 85 | Pre-emerge Herbicidal Activity ECHCG ([6]; 63 g ai/ha): 20 | Pre-emerge Herbicidal Activity ECHCG ([6]; 250 g ai/ha): 70 | Pre-emerge Herbicidal Activity SETVI ([7]; 63 g ai/ha): 95 | Pre-emerge Herbicidal Activity SETVI ([7]; 250 g ai/ha): 99 | Pre-emerge Herbicidal Activity SORHA ([8]; 63 g ai/ha): 40 | Pre-emerge Herbicidal Activity SORHA ([8]; 250 g ai/ha): 80 | Pre-emerge Herbicidal Activity IPOHE ([9]; 63 g ai/ha): 50 | Pre-emerge Herbicidal Activity IPOHE ([9]; 250 g ai/ha): 100 | phytotoxicity rating RICE (crop damage) ([10]; 63 g ai/ha): 0 | phytotoxicity rating RICE (crop damage) ([10]; 250 g ai/ha): 30 | phytotoxicity rating CORN (crop damage) ([11]; 63 g ai/ha): 5 | phytotoxicity rating CORN (crop damage) ([11]; 250 g ai/ha): 10 | phytotoxicity rating CASOB [12]: 10 | phytotoxicity rating DIGSA ([13]; 63 g ai/ha): 0 | phytotoxicity rating DIGSA ([13]; 250 g ai/ha): 10 | phytotoxicity rating CHEAL ([14]; 63 g ai/ha): 20 | phytotoxicity rating CHEAL ([14]; 250 g ai/ha): 95 | phytotoxicity rating ABUTH ([15]; 63 g ai/ha): 40 | phytotoxicity rating ABUTH ([15]; 250 g ai/ha): 80 | phytotoxicity rating AMARE ([16]; 63 g ai/ha, rating scale 0-100 (0 no damage, 100 complete death)): 50 | phytotoxicity rating AMARE ([16]; 250 g ai/ha, rating scale 0-100): 70 | phytotoxicity rating AMBEL ([17]; 63 g ai/ha): 10 | phytotoxicity rating AMBEL ([17]; 250 g ai/ha): 70 | phytotoxicity rating ECHCG ([18]; 63 g ai/ha): 0 | phytotoxicity rating ECHCG ([18]; 250 g ai/ha): 0 | phytotoxicity rating SETVI ([19]; 63 g ai/ha): 0 | phytotoxicity rating SETVI ([19]; 250 g ai/ha): 20 | phytotoxicity rating SORHA ([20]; 63 g ai/ha): 0 | phytotoxicity rating SORHA ([20]; 250 g ai/ha): 0 | phytotoxicity rating IPOHE ([21]; 63 g ai/ha): 30 | phytotoxicity rating IPOHE ([21]; 250 g ai/ha): 60 | Pre-emerge Herbicidal Activity RICE ([22]; 63 g ai/ha): 0 | Pre-emerge Herbicidal Activity RICE ([22]; 250 g ai/ha): 30 | Pre-emerge Herbicidal Activity CORN ([23]; 63 g ai/ha): 50 | Pre-emerge Herbicidal Activity CORN ([23]; 250 g ai/ha): 70 | Pre-emerge Herbicidal Activity AMARE ([24]; 63 g ai/ha): 100 | Pre-emerge Herbicidal Activity AMARE ([24]; 250 g ai/ha): 100

Source: patent US6355799B1, “Substituted benzene compounds, process for their preparation, and herbicidal and defoliant compositions containing them” (ISK Americas Incorporated, priority 1997, dated 2002)
